Results: ChEMBL document CHEMBL1146255, “Synthesis of bisdesmosidic kryptogenyl saponins using the 'random glycosylation' strategy and evaluation of their antitumor activity” (Bioorg Med Chem Lett, 2007)
pIC50: −log10 of the molar value.

Key:
Conditions in all cases: Homo sapiens
HeLa [1] = experiment: Antitumor activity against HeLa cells at 1 uM by MTT assay; format: functional
HeLa [2] = experiment: Antitumor activity against HeLa cells at 10 nM by MTT assay; format: functional
HeLa [3] = experiment: Antitumor activity against HeLa cells at 0.1 uM by MTT assay; format: functional
HeLa [4] = experiment: Antitumor activity against HeLa cells at 10 uM by MTT assay; format: functional
HeLa [5] = experiment: Antitumor activity against HeLa cells by MTT assay; format: functional, cell-based

Row | SMILES | pIC50 (HeLa [5]) | inhibition at 1 µM (HeLa [1]) | inhibition at 0.01 µM (HeLa [2]) | inhibition at 0.1 µM (HeLa [3]) | inhibition at 10 µM (HeLa [4])
1 | C[C@H](CCC(=O)[C@@H](C)[C@H]1C(=O)C[C@H]2[C@@H]3CC=C4C[C@@H](O[C@@H]5OC[C@@H](O)[C@H](O)[C@H]5O)CC[C@]4(C)[C@H]3CC[C@]12C)CO[C@@H]1O[C@H](CO)[C@@H](O)[C@H](O)[C@H]1O | < 5.00 | 23% | 17.5% | 19.3% | 30.9%
2 | C[C@H](CCC(=O)[C@@H](C)[C@H]1C(=O)C[C@H]2[C@@H]3CC=C4C[C@@H](O[C@@H]5OC[C@H](O)[C@H](O)[C@H]5O)CC[C@]4(C)[C@H]3CC[C@]12C)CO[C@@H]1OC[C@@H](O)[C@H](O)[C@H]1O | < 5.00 | 2.84% | 0.98% | 1.79% | 11.8%
3 | C[C@H](CCC(=O)[C@@H](C)[C@H]1C(=O)C[C@H]2[C@@H]3CC=C4C[C@@H](O[C@@H]5O[C@@H](C)[C@H](O)[C@@H](O)[C@H]5O)CC[C@]4(C)[C@H]3CC[C@]12C)CO[C@@H]1O[C@H](CO)[C@@H](O)[C@H](O)[C@H]1O | < 5.00 | 1.67% | 0.16% | 1.66% | 15.1%
4 | C[C@@H](CO)CCC(=O)[C@@H](C)[C@H]1C(=O)C[C@H]2[C@@H]3CC=C4C[C@@H](O)CC[C@]4(C)[C@H]3CC[C@]12C | < 5.00 | 17.3% | 9.49% | 13.8% | 22.3%
5 | C[C@H](CCC(=O)[C@@H](C)[C@H]1C(=O)C[C@H]2[C@@H]3CC=C4C[C@@H](O[C@@H]5O[C@H](CO)[C@@H](O)[C@H](O)[C@H]5O)CC[C@]4(C)[C@H]3CC[C@]12C)CO[C@@H]1O[C@H](CO)[C@@H](O)[C@H](O)[C@H]1O | < 5.00 | 2.31% | 0.46% | 1.78% | 3.46%
6 | C[C@H](CCC(=O)[C@@H](C)[C@H]1C(=O)C[C@H]2[C@@H]3CC=C4C[C@@H](O[C@@H]5O[C@H](CO)[C@@H](O)[C@H](O)[C@H]5O)CC[C@]4(C)[C@H]3CC[C@]12C)CO[C@@H]1OC[C@@H](O)[C@H](O)[C@H]1O | < 5.00 | 14.5% | 7.95% | 12.8% | 24.8%
7 | C[C@H](CCC(=O)[C@@H](C)[C@H]1C(=O)C[C@H]2[C@@H]3CC=C4C[C@@H](O[C@@H]5O[C@H](CO)[C@@H](O)[C@H](O)[C@H]5O)CC[C@]4(C)[C@H]3CC[C@]12C)CO[C@@H]1OC[C@H](O)[C@H](O)[C@H]1O | < 5.00 | 3.67% | 0.87% | 1.05% | 4.36%

Second part, led by results:

Row | pIC50 (HeLa [5]) | SMILES | inhibition at 1 µM (HeLa [1]) | inhibition at 0.01 µM (HeLa [2]) | inhibition at 0.1 µM (HeLa [3]) | inhibition at 10 µM (HeLa [4])
8 | 5.37 | C[C@H](CCC(=O)[C@@H](C)[C@H]1C(=O)C[C@H]2[C@@H]3CC=C4C[C@@H](O[C@@H]5OC[C@H](O)[C@H](O)[C@H]5O)CC[C@]4(C)[C@H]3CC[C@]12C)CO[C@@H]1OC[C@H](O)[C@H](O)[C@H]1O | 4.34% | 0.26% | 1.64% | 62%
9 | < 5.00 | C[C@H](CCC(=O)[C@@H](C)[C@H]1C(=O)C[C@H]2[C@@H]3CC=C4C[C@@H](O[C@@H]5O[C@@H](C)[C@H](O)[C@@H](O)[C@H]5O)CC[C@]4(C)[C@H]3CC[C@]12C)CO[C@@H]1O[C@@H](C)[C@H](O)[C@@H](O)[C@H]1O | 21.2% | 7.19% | 14.3% | 26.2%
10 | 5.08 | C[C@H](CCC(=O)[C@@H](C)[C@H]1C(=O)C[C@H]2[C@@H]3CC=C4C[C@@H](O[C@@H]5O[C@@H](C)[C@H](O)[C@@H](O)[C@H]5O)CC[C@]4(C)[C@H]3CC[C@]12C)CO[C@@H]1OC[C@H](O)[C@H](O)[C@H]1O | 6.34% | 1.35% | 6.93% | 60.1%
11 | < 5.00 | C[C@H](CCC(=O)[C@@H](C)[C@H]1C(=O)C[C@H]2[C@@H]3CC=C4C[C@@H](O[C@@H]5OC[C@H](O)[C@H](O)[C@H]5O)CC[C@]4(C)[C@H]3CC[C@]12C)CO[C@@H]1O[C@@H](CO)[C@H](O)[C@@H](O)[C@@H]1O | 4.79% | 3.25% | 3.84% | 9.71%
12 | < 5.00 | C[C@H](CCC(=O)[C@@H](C)[C@H]1C(=O)C[C@H]2[C@@H]3CC=C4C[C@@H](O[C@@H]5OC[C@@H](O)[C@H](O)[C@H]5O)CC[C@]4(C)[C@H]3CC[C@]12C)CO[C@@H]1OC[C@@H](O)[C@H](O)[C@H]1O | 16.3% | 6% | 14.2% | 17.6%
13 | < 5.00 | CC(=O)OC[C@H](C)CCC(=O)[C@@H](C)[C@H]1C(=O)C[C@H]2[C@@H]3CC=C4CC(OC(=O)c5ccccc5)CC[C@]4(C)[C@H]3CC[C@]12C (stereo not given in full) | 11% | 8.33% | 12.1% | 18.5%
14 | < 5.00 | C[C@H](CCC(=O)[C@@H](C)[C@H]1C(=O)C[C@H]2[C@@H]3CC=C4C[C@@H](O[C@@H]5O[C@H](CO)[C@@H](O)[C@H](O)[C@H]5O)CC[C@]4(C)[C@H]3CC[C@]12C)CO[C@@H]1O[C@@H](C)[C@H](O)[C@@H](O)[C@H]1O | 9.94% | 3.42% | 7.16% | 10.5%
15 | < 5.00 | C[C@H](CCC(=O)[C@@H](C)[C@H]1C(=O)C[C@H]2[C@@H]3CC=C4C[C@@H](O[C@@H]5O[C@@H](C)[C@H](O)[C@@H](O)[C@H]5O)CC[C@]4(C)[C@H]3CC[C@]12C)CO[C@@H]1OC[C@@H](O)[C@H](O)[C@H]1O | 20.7% | 13.6% | 20.1% | 28.5%
16 | < 5.00 | C[C@H](CCC(=O)[C@@H](C)[C@H]1C(=O)C[C@H]2[C@@H]3CC=C4C[C@@H](O[C@@H]5OC[C@@H](O)[C@H](O)[C@H]5O)CC[C@]4(C)[C@H]3CC[C@]12C)CO[C@@H]1OC[C@H](O)[C@H](O)[C@H]1O | 10.6% | 0.68% | 5.45% | 30.9%
17 | < 5.00 | C[C@H](CCC(=O)[C@@H](C)[C@H]1C(=O)C[C@H]2[C@@H]3CC=C4C[C@@H](O[C@@H]5OC[C@H](O)[C@H](O)[C@H]5O)CC[C@]4(C)[C@H]3CC[C@]12C)CO[C@@H]1O[C@@H](C)[C@H](O)[C@@H](O)[C@H]1O | 9.25% | 6.36% | 7.51% | 10.3%
